Test results reported in patent publication US20210358575A1, “A METHOD FOR DETERMINING THE EFFICACY OF TREATMENT WITH A COMBINATION OF DRUGS IN A SUBJECT DIAGNOSED WITH A DISEASE AND A METHOD FOR CLASSIFYING THE UTILITY OF DRUG COMBINATIONS IN TREATMENT OF SAID SUBJECT” (priority 2018, published 2021).

Experiments:
[1] = test system: first-line AML patients treated with CYT+IDA; assay: Validation of PM Test score vs clinical response in 112 first-line AML samples; type: in vivo, human; details: 112 AML patients treated with CYT+IDA
Description: The Precision Medicine (PM) Test as described ranks treatments by a score that estimates the activity of each treatment across a population of patient samples. Higher score represents more ex vivo sensitivity to treatment, while lower score represents less ex vivo sensitivity to treatment, i.e. more ex vivo resistance. A particular format of the results of the PM Test is shown in FIG. 19, panels A and B, wherein the ranking of treatments by activity score from 100%=best to 0%=worst is shown (score may be represented graphically using a colour/tone gradient or categorisation). The following 3 categories are identified:
To validate the predictive power of these PM Test score results, the set of 123 samples treated homogeneously with CYT+IDA that were used in the correlation study of Example 1 were employed. Only 112 samples were used for validation. To evaluate the predictive power of the PM Test score, in the format shown in FIG. 19, panel A referring to a sensitive patient we can only use patients predicted to be sensitive or resistant. Treatments having intermediate scores are not considered sufficiently strong to predict any response. In the case of intermediate scores, other factors such as pharmacokinetics may be more important than the score. On the other hand, extreme scores are more likely to prevail over other factors such as pharmacokinetics.
The set of data of 112 patients treated with CYT+IDA represents a 1st line treatment of AML with a 72% response rate. This means that 72% of these 112 patients achieved Complete Remission (CR) clinically. The majority of patients were sensitive, with fewer resistant patients. Thus, the statistics are improved by calculating the % of cases in which the PM Test score predicted patients to be sensitive to the ex vivo treatment. This means selecting only the treatments to which the patient is expected to be very sensitive, with scores between 80-100%. The % of accurate prediction of sensitive (responsive) patients is referred as the Negative Predicted Value (NPV).
Samples whose score are between this variable threshold and 100% are analysed and predicted as sensitive because they have the top score. The results are shown for the monotherapies CYT and IDA, and for the combination treatment. Focus was placed on the combination treatment CYT+IDA that was administered to patients. Columns 8 to 10 of Table 4 show the results for the combined treatment CYT+IDA for different thresholds. The lowest threshold 55%, which means between 55 and 100%, identifies 93 out of the 112 samples, that would be predicted as sensitive. […] Thus, the prediction accuracy or NPV is 77/93=82.8%. As the threshold is increased (descending the 1st column of Table 4), the range of scores included is narrowed because the maximum is always 100%. Consequently, as the threshold is increased, the total number of samples included diminishes, reaching 0 samples at 100% (100-100%) and 18 samples at 95%. The decrease can be observed in the number of either sensitive or resistant samples (descending columns 8 and 9 of Table 4). […] Thus, the higher the score, the better the prediction (moreover, the intermediate sensitivity values provide less accurate prediction than the extreme values).

[2] = test system: bone marrow samples of acute lymphoid leukemia (ALL) patients; assay: Ex vivo test of single drugs, EC50 compared with population distribution, acute lymphoid leukemia samples; type: cell-based, human; details: ALL second line patient VIVIA-PMALL04001, 48 h
Protocol: Bone marrow samples were obtained from three adult patients diagnosed with MM (VIVIA-PMMM010431, VIVIA-PMMM060111 and VIVIA-PMMM130061) and three adult patients diagnosed with ALL (VIVIA-PMALL07002, VIVIA-PMALL04001 and VIVIA-PMALL09001). Following the same experimental design as described for examples 1 and 3, said bone marrow samples were incubated for 48 h in well plates containing the single drugs shown in FIGS. 21 to 26. After the measurement of pathological populations by flow cytometry, pharmacological response parameters were estimated using population pharmacodynamic models. The most representative parameter of drug potency, the EC50, was used for a comparative analysis of the results provided by said bone marrow samples with respect to the statistical distribution of the same parameter observed in a population of samples and stored in the database. Such populations varied in size depending on the drug, being always over one hundred individuals in the case of MM and between 15 and 21 individuals in the case of ALL.

[3] = test system: live pathological cells (LPC) in bone marrow samples of AML patients; assay: PharmaFlow PM test: ex vivo drug sensitivity of whole bone marrow samples, population pharmacodynamic models; type: cell-based, human; details: typical population value
Protocol: Ex vivo drug sensitivity analysis was made using the PharmaFlow platform (previously termed ExviTech®) maintaining the bone marrow (BM) microenvironment. A minimum BM sample volume between one and two mL was collected by aspiration at AML diagnosis, before starting induction chemotherapy, and was processed by an automated method 24 hours after extraction. Samples were incubated with CYT, IDA and/or CYT+IDA for 48 hours. A more detailed description of the procedure has been published elsewhere (Bennett, et al 2014).
Evaluation of drug response was done by counting the number of live pathological cells (LPC) remaining after incubation at increasing drug concentrations (Upton and Mould 2014). Dying cells (apoptosis) were excluded using Annexin V-FITC. Pharmacological responses were analyzed using PD population-based models (Upton and Mould 2014) which essentially perform the fitting of the dependent variable (natural log of LPC) in a non-linear mixed-effects model to derive typical population values (fixed effects) and the magnitude of inter-patient and residual variability (random effects).
Model development was performed with the first-order conditional estimation method using interaction option with the software NONMEM (v7.2) (Beal, et al 1989-2001), according to the following equation: […]
Where LPC0 (LCTi0) parameter refers to the number of LPC (LCTi) after incubation in the absence of drug, Emax represents the maximum fractional decrease in LPC that the drug can elicit, EC50, is the drug concentration exerting half of Emax, and γ is the parameter governing the steepness of the LPC vs drug concentration (C) curve. For interaction analysis a Surface Interaction model (Greco, et al 1995) was used to estimate the degree of synergy, referred as a parameter, between both drugs. Interpatient variability (IPV) associated to all parameters was described by means of an exponential model of the components of variance. An additive error structure was used for the residual variability. Population PD models were built with bone marrow (BM) samples from 473 patients that were incubated with CYT, 456 with IDA and 443 with CYT+IDA. Bayesian estimation methods were then used to retrieve individual patient parameters based on their available exposure-response measurements in conjunction with the PD population parameters.
Individual response profiles normalized with respect to LPC0 (LCTi0), were integrated between the concentration points corresponding to the 20th and 80th percentiles of the distribution of estimated individual EC50 values, to obtain the values of the areas under the curves (AUCs) that were used as a descriptor of the ex vivo drug effect (i.e. the higher the AUC, the lower the cytotoxic effect (efficacy or potency) of the drug.

## Nc1ccn([C@@H]2O[C@H](CO)[C@@H](O)[C@@H]2O)c(=O)n1 [Cytarabine, cytarabine]
[1]; PM Test score ≥55
  % Sens. (percentage of patients sensitive to therapy, NPV): 84.8%
  Res. (number of patients resistant to therapy): 14
  Sens. (number of patients sensitive to therapy): 78
[1]; PM Test score ≥60
  % Sens. (percentage of patients sensitive to therapy, NPV): 85.7%
  Res. (number of patients resistant to therapy): 13
  Sens. (number of patients sensitive to therapy): 78
[1]; PM Test score ≥65
  % Sens. (percentage of patients sensitive to therapy, NPV): 85.4%
  Res. (number of patients resistant to therapy): 13
  Sens. (number of patients sensitive to therapy): 76
[1]; PM Test score ≥70
  % Sens. (percentage of patients sensitive to therapy, NPV): 85.1%
  Res. (number of patients resistant to therapy): 13
  Sens. (number of patients sensitive to therapy): 74
[1]; PM Test score ≥75
  % Sens. (percentage of patients sensitive to therapy, NPV): 86.1%
  Res. (number of patients resistant to therapy): 11
  Sens. (number of patients sensitive to therapy): 68
[1]; PM Test score ≥80
  % Sens. (percentage of patients sensitive to therapy, NPV): 86.1%
  Res. (number of patients resistant to therapy): 10
  Sens. (number of patients sensitive to therapy): 62
[1]; PM Test score ≥85
  % Sens. (percentage of patients sensitive to therapy, NPV): 87.1%
  Res. (number of patients resistant to therapy): 8
  Sens. (number of patients sensitive to therapy): 54
[1]; PM Test score ≥90
  % Sens. (percentage of patients sensitive to therapy, NPV): 85.2%
  Res. (number of patients resistant to therapy): 8
  Sens. (number of patients sensitive to therapy): 46
[1]; PM Test score ≥95
  % Sens. (percentage of patients sensitive to therapy, NPV): 83.7%
  Res. (number of patients resistant to therapy): 7
  Sens. (number of patients sensitive to therapy): 36
[1]; PM Test score ≥100
  Res. (number of patients resistant to therapy): 0
  Sens. (number of patients sensitive to therapy): 0
[2]
  ex vivo activity: intermediate-low activity
[3]; Homo sapiens, AML bone marrow samples, 48 h incubation
  EC50: 6.94 µM
[3]; set to 1 in the model, 48 h
  EMAX (maximum fractional decrease in LPC): 1
[3]; 48 h
  γ (steepness of LPC vs concentration curve): 0.684
